# Results: US20220259279A1, “ALGINATE-BASED MICROCAPSULATION FOR THE DELIVERY OF ALPHA-CGRP IN CARDIOVASCULAR DISEASES” (University of South Carolina, priority 2019, published 2022)
# Tested on: rat H9C2 cells
# Experiment: trypan-blue cell viability assay
# Format: cell-based
# Conditions: 1 μM and 5 μM, 7 days, vs control-untreated cells
# Description: Two different cardiac cell lines, rat H9C2 cells and mouse HL-1 cells, and two different assays, trypan-blue cell viability assay and calcium dye fluorescent based assay, were used to determine the cytotoxicity of prepared alginate-αCGRP microcapsules.
# Trypan-blue cell viability assay: Rat cardiac myoblast cell line, H9C2 cells, was cultured in complete culture medium containing Dulbecco's Modified Eagles' Medium (DMEM) supplemented with 10% fetal bovine serum (FBS), 4.5 gm/liter D-glucose, 1.5 gm/liter sodium bicarbonate, and antibiotic solution of 100 unit/ml penicillin and 100 μg/ml streptomycin. […] The viability of H9C2 cells in presence or absence of alginate-αCGRP microcapsules was determined by trypan blue assay. […] After 7 days of treatment, cells were trypsinized and counted by hemocytometer using trypan-blue exclusion method (Sigma) according to manufacturer's instructions. […]
# Trypan-blue cell viability assay: The rat cardiac H9C2 cells were grown at 37° C. in a humidified incubator with 5% CO2 in complete culture medium (containing DMEM supplemented with 10% fetal bovine serum, FBS, 4.5 gm/liter D-glucose, and 1× penicillin/streptomycin). The viability of H9C2 cells in presence of alginate-α-CGRP microcapsules was determined by trypan-blue assay (Sigma). […] After 7 days of treatment, cells were trypsinized and counted by hemocytometer using trypan-blue exclusion method.
compound,measurement,value
CC(C)C[C@H](NC(=O)CNC(=O)[C@H](C)NC(=O)[C@H](CC(C)C)NC(=O)[C@H](CCCNC(=N)N)NC(=O)[C@H](Cc1c[nH]cn1)NC(=O)[C@@H](NC(=O)[C@@H](NC(=O)[C@@H]1CSSC[C@H](NC(=O)[C@@H](N)CO)C(=O)N[C@@H](CC(N)=O)C(=O)N[C@@H]([C@@H](C)O)C(=O)N[C@@H](C)C(=O)N[C@@H]([C@@H](C)O)C(=O)N1)C(C)C)[C@@H](C)O)C(=O)N[C@@H](CC(C)C)C(=O)N[C@@H](CO)C(=O)N[C@@H](CCCNC(=N)N)C(=O)N[C@@H](CO)C(=O)NCC(=O)NCC(=O)N[C@H](C(=O)N[C@H](C(=O)N[C@@H](CCCCN)C(=O)N[C@@H](CC(=O)O)C(=O)N[C@@H](CC(N)=O)C(=O)N[C@@H](Cc1ccccc1)C(=O)N[C@H](C(=O)N1CCC[C@H]1C(=O)N[C@H](C(=O)N[C@@H](CC(N)=O)C(=O)N[C@H](C(=O)NCC(=O)N[C@@H](CO)C(=O)N[C@@H](CCC(=O)O)C(=O)N[C@@H](C)C(=O)N[C@@H](Cc1ccccc1)C(N)=O)C(C)C)[C@@H](C)O)C(C)C)C(C)C)C(C)C [α-CGRP-alone],"viability of H9C2 cells (live cells, trypan blue)",not significantly different
